Laboratory results as given in patent US6713051B2, “Antiperspirant or deodorant compositions” (Unilever Home & Personal Care USA division of Conopco, Inc., priority 2001, dated 2004).

Key:
Assay type in all cases: cell-based
[1] = tested on: Human foreskin keratinocytes; test: Keratinocyte proliferation analysis (DNA content per well, Pico Green); settings: for keratinocyte DNA synthesis activity, statement: 1 way ANOVA, p<0.05; for DNA: 4 days
Procedure: (§1) Human foreskin keratinocytes (passage 3) were seeded at 4000 cells/well in 96 well plates in Keratinocyte Growth Medium (abbreviated to KGM) containing 0.03 mM calcium and grown for 3 days at 37° C. The cells were then treated with PPAR ligands in KGM containing 0.03 mM calcium for 4 days prior to harvest. Stock solutions of PPAR ligands were dissolved in dimethylsulphoxide (DMSO) and diluted in KGM before adding to the cells. […] The harvested cells were washed 3× in phosphate buffered saline (PBS) and extracted in 1% Triton X100, 50 mM (tris[hydroxymethyl]aminomethane) (Tris) pH 8.0 plus protease inhibitors pepstatin and leupeptin (100 μl/well). The extract was assayed for DNA content using the Pico Green DNA assay (Molecular Probes, Inc.).
Cultured keratinocytes were treated with cis-9-trans-11 conjugated linoleic acid (CT-CLA) for 4 days. The cells were extracted with Tris-1% Triton X100 and the DNA content per well was determine by the Pico Green assay in accordance with the above described procedure.

[2] = tested on: Human foreskin keratinocytes; test: Keratinocyte cornified envelope assay; settings: for cornified envelope formation, statement: 1 way ANOVA, p<0.05; for Cornified envelopes assay: 4 days
Procedure: as §1
After Tris-triton extraction for TGase assay, the cells were extracted with 100 μl/well of 2% SDS, 20 mM DTT for 16 hours at 60° C. Once extracted the SDS suspension from each well was individually filtered through polyviylidenefluoride (PVDF) membrane (Immobilon-P™ Transfer Membrane, Millipore) which had been pre-blocked in Tris Buffered Saline (TBS) containing 0.5% (v/v) Tween 20, 0.5% using a Dot Blot TM Apparatus (Bio-Rad). Each sample was washed several times with TBS/Tween buffer before the membrane was removed from the apparatus, rinsed in distilled water and silver stained using silver stain kit (Bio-Rad). The stained dot blot membrane was scanned and analysed using Phoretix Array™ software.
Cultured keratinocytes were treated with pinoleic acid for 4 days. The cells were extracted with 2% SDS, 20 mM DTT and the cornified envelopes were quantified, after filtration using a PDVF membrane, by silver staining, as described above.

human PPARα = molecular target: T1, human PPARα (Homo sapiens, UniProt Q07869); test: PPARα reporter gene assay (firefly luciferase, transiently transfected Cos-7 cells); settings: for Pass at (lowest tested administration level at which the test material passed): pass = activation greater than oleic acid at 100 μM, commonly >1.57 times vehicle control, 24 h treatment; for Result (superior activity class achieved): class reached
T1 construct: The coding region of a human PPARα cDNA was inserted downstream of the CMV promoter; expressed in transfected cells; host or cells: Cos-7 cells, transient transfection (pcDNA3.1(−)-PPARα, pRSV-RXRα, 3xPPRE-TK-luc reporter, pRL-TK)
T1 sequence (Q07869 1-468): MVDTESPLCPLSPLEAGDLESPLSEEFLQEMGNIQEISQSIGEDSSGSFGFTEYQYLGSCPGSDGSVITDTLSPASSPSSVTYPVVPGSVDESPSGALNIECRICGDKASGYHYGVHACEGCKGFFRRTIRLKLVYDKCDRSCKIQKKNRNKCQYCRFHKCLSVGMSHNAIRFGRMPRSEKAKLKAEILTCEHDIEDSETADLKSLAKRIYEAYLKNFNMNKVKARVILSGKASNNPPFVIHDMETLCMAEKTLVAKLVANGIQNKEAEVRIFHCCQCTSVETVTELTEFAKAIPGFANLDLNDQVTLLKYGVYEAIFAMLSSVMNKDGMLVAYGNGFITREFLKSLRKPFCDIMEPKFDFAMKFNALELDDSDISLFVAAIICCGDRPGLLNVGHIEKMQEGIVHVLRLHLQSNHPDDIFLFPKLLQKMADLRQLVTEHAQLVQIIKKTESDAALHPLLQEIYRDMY
T1 sequence (P19793 1-462 partner): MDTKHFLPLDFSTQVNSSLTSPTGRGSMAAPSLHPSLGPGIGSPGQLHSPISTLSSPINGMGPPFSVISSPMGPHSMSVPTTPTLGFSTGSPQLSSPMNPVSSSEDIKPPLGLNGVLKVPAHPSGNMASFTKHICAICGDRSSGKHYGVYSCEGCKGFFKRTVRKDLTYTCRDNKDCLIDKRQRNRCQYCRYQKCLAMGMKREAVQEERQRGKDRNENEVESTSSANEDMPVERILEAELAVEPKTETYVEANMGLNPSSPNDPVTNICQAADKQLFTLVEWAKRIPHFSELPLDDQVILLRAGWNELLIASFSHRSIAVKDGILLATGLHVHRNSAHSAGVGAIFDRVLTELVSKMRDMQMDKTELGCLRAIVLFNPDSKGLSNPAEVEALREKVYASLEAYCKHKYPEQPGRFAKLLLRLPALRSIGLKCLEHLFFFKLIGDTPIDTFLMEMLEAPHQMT
Text: One convenient reporter assay for determining whether a fatty acid material is PPARα activating is based upon the firefly luciferase gene.
Fatty acids were screened to identify PPAR activating fatty acids using a reporter assay.
This assay relied on ligands binding to and activating the PPARα protein, which, in turn, activated genes under the control of PPAR response elements (PPRE). In the assay, the firefly luciferase gene was cloned behind a promoter containing 3 copies of the fatty acid binding protein PPRE.
The assay was performed by transient transfection of Cos-7 cells with a mixture of four DNA plasmids. These were:
1) PPAR reporter gene construct (Modified pNF-KB-luc reporter vector (Firefly luciferase reporter vector commercially available form Clontech (NF-kB response element, TK minimal promoter, luc^+, f1 origin, pUC origin, amp^r)). A tandem repeat of 3 PPAR response elements (PPREs) corresponding to the PPRE found in the fatty acid binding protein promoter was inserted upstream of the minimal TK promoter to replace the NF-κB response element);
2) 2) Over-expressing PPARα construct (Modified pcDNA3.1(−) vector (A mammalian expression vector commercially available from Invitrogen (CMV promoter, f1 origin, SV40 origin, ColE1 origin, neo^r, amp^r)). The coding region of a human PPARα cDNA was inserted downstream of the CMV promoter of pcDNA3.1 (−)). […] The coding region of a human RXRα cDNA has been inserted downstream of the RSV promoter. (Gift of V. K. K. Chatterjee, Addenbrooke's Hospital, Cambridge)) 4) Control luciferase construct (pRL-TK Renilla luciferase reporter vector commercially available from Promega (HSV-TK promoter, T7 promoter, Rluc^+, ori, amp^r)). For the transfection, DNA was made up as a mix of PPAR reporter gene: PPARα: RXRα: control in the ratio 40:4:3:3.
Cos-7 cells were grown in Dulbecco's modified Eagle's Medium, also herein referred to as DMEM with 10% foetal calf serum, herein also referred to as FCS at 37° C., 5% CO2 to 80% confluency. Cells were then plated out in 24 well plates at 50,000 cells per well and incubated overnight in DMEM with 10% FCS at 37° C., 5% CO2. Cells were then transfected using the LipofectAMINE reagent (GibcoBRL). For each well 0.4 μg of DNA mix (in 25 μl of DMEM) was incubated with 1 μl LipofectAMINE (in 25 μl of DMEM) for 45 minutes. The mixture was then made up to 250 μl per well and added to the cells, which had been washed with 1 ml of DMEM. Cells were then incubated for 5 hours at 37° C., 5% CO2 and 250 μl DMEM with 10% SBCS (charcoal stripped bovine calf serum) added. Cells were incubated for 18 hours at 37° C., 5% CO2 before being treated with the appropriate compound/extract. Test compounds were made up as 1000× stocks (in DMSO or ethanol as appropriate) and diluted into DMEM with 10% SBCS (500 μl per well) immediately before being added to cells. Each treatment was performed in triplicate. The transfection mix was removed from the cells and replaced with the treatment mix, and incubated for 24 hours at 37° C., 5% CO2. Cells were washed with 1 ml of PBS (without calcium or magnesium) and then lysed with 100 μl per well of 1× Passive Lysis Buffer (as supplied with Promega Dual Luciferase assay kit). Lysis was allowed to continue for 15 minutes and then the lysate was assayed for Firefly and Renilla luciferase activity using the Promega Dual Luciferase assay kit. For the assay, 20 μl of lysate was taken and assayed as described in the kit instructions using a MLX microtiter™ plate luminometer (Dynex).
Firefly luciferase activity (PPAR driven) was normalised against the Renilla luciferase value for that well and the mean calculated for the three wells treated with the same agent. Activity was then expressed as fold activation over the vehicle (DMSO or ethanol) control values for that particular plate.

interleukin-6 (IL-6) = test: Skin organotypic culture analysis: AP-induced IL-6 release into the medium; settings: for IL-6: 24 h, Nil 51.7, AP 118.8
Procedure: (§2) The cultures were then incubated at 37° C., 5% CO2, and 95% relative humidity (standard cell culture conditions) for 24 h. The culture medium was assayed for the pro-inflammatory cytokine interleukin-6 (IL-6) and after washing to remove the AP formulation, the viability of the culture was determined using the Thiazoyl blue (MTT) assay (Mosmann, T. J. Immunol. Methods 65, p55 (1983). IL-6 was determined using an Immunoassay (Quantikine, R&D systems).
In this Example, skin organotypic cultures (Epiderm™, MatTek, USA) were treated topically with the above-identified AP formulation and the trans-10-cis-12 conjugated linoleic acid (TC CLA) was introduced into the medium. The cultures were then incubated at 37° C., 5% CO2, and 95% relative humidity (standard cell culture conditions) for 24 h. The culture medium was assayed for the pro-inflammatory cytokine interleukin-6 (IL-6) and after washing to remove the AP formulation, the viability of the culture was determined by the method described in Example 2.
as §2, with “hours.” for “h.”, “MTT assay.” for “Thiazoyl blue (MTT) assay (Mosmann, T. J. Immunol. Methods 65, p55 (1983).”, “ELISA assay (R&D” for “Immunoassay (Quantikine, R&D”

## CCCCC/C=C\C/C=C\CC/C=C\CCCC(=O)O [Pinolenic acid, pinolenic acid]
[1]; Example 11: 10 μM
  keratinocyte DNA synthesis activity, statement: significantly reduce
[1]; Table 12: 0.1 μM, control (0 μM) 14.46
  DNA: 13.41 ng/well
[1]; Table 12: 1 μM, control (0 μM) 14.46
  DNA: 12.95 ng/well
[1]; Table 12: 10 μM, control (0 μM) 14.46
  DNA: 12.63 ng/well
[2]; Example 8: 10 μM
  cornified envelope formation, statement: significantly increase
[2]; Table 9: 0.1 μM, control (0 μM) 22831
  Cornified envelopes assay: 18828 arb. Units
[2]; Table 9: 1 μM, control (0 μM) 22831
  Cornified envelopes assay: 24860 arb. Units
[2]; Table 9: 10 μM, control (0 μM) 22831
  Cornified envelopes assay: 36579 arb. Units
Human PPARα
  Pass at (lowest tested administration level at which the test material passed): 10 μm

## hexadecatrienoic acid
[1]; Example 14: 0.1-10 μM
  keratinocyte DNA synthesis activity, statement: significantly reduce
[1]; Table 15: 0.1 μM, control (0 μM) 1.66
  DNA: 0.98 ng/well
[1]; Table 15: 1 μM, control (0 μM) 1.66
  DNA: 1.27 ng/well
[1]; Table 15: 10 μM, control (0 μM) 1.66
  DNA: 1.13 ng/well
[2]; Example 9: 1-10 μM
  cornified envelope formation, statement: significantly increase
[2]; Table 10: 0.1 μM, control (0 μM) 17996
  Cornified envelopes assay: 17617 arb. Units
[2]; Table 10: 1 μM, control (0 μM) 17996
  Cornified envelopes assay: 36017 arb. Units
[2]; Table 10: 10 μM, control (0 μM) 17996
  Cornified envelopes assay: 40997 arb. Units
Human PPARα
  Result at (lowest administration level at which super or MS activity was achieved): 10 μm
  Result (superior activity class achieved): super (superior activity [super] (50% higher—at least 2.25 times PPARα activation))
  Pass at (lowest tested administration level at which the test material passed): 10 μm

## CCCCC/C=C\C=C\CCCCCCCCC(=O)O [CLA (t10, c12), trans-10-cis-12 conjugated linoleic acid]
interleukin-6 (IL-6); 5 and 500 μM, Dunnet's test p<0.01
  AP-induced IL-6 release: significantly decrease
interleukin-6 (IL-6); Table 5: 5 μM in medium + AP
  IL-6: 59.6 pg/mL
interleukin-6 (IL-6); Table 5: 500 μM in medium + AP
  IL-6: 57.1 pg/mL
Human PPARα
  Result at (lowest administration level at which super or MS activity was achieved): 100 μm
  Result (superior activity class achieved): super (superior activity [super] (50% higher—at least 2.25 times PPARα activation))
  Pass at (lowest tested administration level at which the test material passed): 50 μm

## CCCCCC[C@@H](O)C/C=C/CCCCCCCC(=O)O [Ricinolaidic acid, ricinolaidic acid]
Human PPARα
  Result at (lowest administration level at which super or MS activity was achieved): 25 μm
  Result (superior activity class achieved): MS (more superior activity [MS] (100% higher—at least 3 times PPARα activation))
  Pass at (lowest tested administration level at which the test material passed): 10 μm

## CCCC/C=C/CCCCCCCCCCCC(=O)O [Trans-13-octadecenoic acid]
Human PPARα
  Pass at (lowest tested administration level at which the test material passed): 10 μm

## CCCCCC/C=C/CCCCCCCCCC(=O)O [trans vaccenic acid]
Human PPARα
  Pass at (lowest tested administration level at which the test material passed): 10 μm

## CCCCC/C=C/CCCCCCCCCCC(=O)O [trans-12-octadecenoic acid]
Human PPARα
  Pass at (lowest tested administration level at which the test material passed): 100 μm

## CCCCCCCCCCC/C=C/CCCCC(=O)O [Petroselaidic acid]
Human PPARα
  Result at (lowest administration level at which super or MS activity was achieved): 100 μm
  Result (superior activity class achieved): super (superior activity [super] (50% higher—at least 2.25 times PPARα activation))
  Pass at (lowest tested administration level at which the test material passed): 50 μm

## CCCCCCCC/C=C\CCCCCCCC(=O)O [Oleic acid, reference compound]
Human PPARα; 100 μM, base-line
  PPARα activation compared with the vehicle control: Base-line Oleic acid (1.57 at 100 μM) times
